The values that follow come from patent publication US8604065B2, “Pyridyl cyanoguanidine derivatives” (priority 2010, dated 2013).

A value given as a limit tells only on which side of the number the result lay.

Common to all, as to type: cell-based
The subject of assay [1] is Human pancreatic cancer AsPC-1. Kind of assay: growth inhibition on AsPC-1 in vitro (MTT). Conditions: ASPC1, Aspc-1 cells, 72 h. The procedure:
(§1) Human pancreatic cancer AsPC-1; human acute lymphocytic leukemia taxol-resistant cell strain CCRF-CEM/T; human adenocarcinoma of lung NCI-H1975; human pharyngeal squamous cell carcinoma Fadu; human B lymphoma BA25; human B lymphoma BA91; human B lymphoma BA127; human stomach cancer NCI-N87; human non-small cell lung cancer A549; human liver cancer SK-Hep-1; human lung cancer NCI-H460; human prostate cancer PC-3.
(§2) The following cells were cultured under the following conditions, respectively:
(§3) 37° C., 5% CO2, saturated humidity.
(§4) The cells were cultured until confluence, digested with a pancreatic enzyme, and prepared into a single cell suspension in a complete medium.
(§5) The cells were seeded in a 96-well microplate at a suitable concentration (AsPC-1: 8000 cells/well; NCI-H1975: 5000 cells/well; Fadu: 6000 cells/well; NCI-N87: 15000 cells/well), cultured overnight to render them adherent to the bottom.
(§6) A 2 mM stock solution was prepared by dissolving test compounds in DMSO, diluted with a base medium (without serum) to form a 20 μM or 2 μM 10× working solution which was diluted using a gradient of 1/3. During dilution, the concentration of DMSO was kept consistent. There were 8 dose groups in total. 20 μl of 10× compound working solution was added to the experimental well until the final volume of each well was 200 μl and the concentration of DMSO was 1‰. Meanwhile, a solvent control group (PC) without compounds (PC) and a solvent control group without cells and compounds (NC) were prepared. The cells were further cultured for 72 h.
(§7) Subsequently, the activity of cells was measured with a microculture tetrozolium (MTT method). Specifically, the medium in well was sucked out, a base medium containing 0.5 mg/ml MTT was added in an amount of 100 μl/well, and then the cell was further cultured for 3 h. The medium containing MTT was once again sucked out, 100 μl/well of DMSO was added to dissolve MTT crystal, and OD value at 490 nm was measured with an ELISA analyzer.
(§8) Inhibition rate of a compound was calculated as follows: Inhibition rate=[1−(OD value of administration group−OD value of NC)/(OD value of PC−OD value of NC)]×100%
(§9) Inhibition rates were then plotted versus the logarithm of compound concentrations, and fitted with Logistic 4 parameter equation. The compound concentration corresponding to 50% inhibition rate in the curve was IC50 value.

Assay [2] relates to human acute lymphocytic leukemia taxol-resistant cell strain CCRF-CEM/T. The experiment in a line: growth inhibition on CCRF-CEM/T in vitro (MTT). Conditions: CCRF-CEM-T cells, 72 h. Here is the method: as §1
(§10) The cells were cultured under the following conditions:
(§11) complete medium: 90% RPMI1640, 10% FBS; 37° C., 5% CO2, saturated humidity.
(§12) After cultured to the end of the logarithmic growth phase, the cells were diluted with the complete medium to the required concentration.
(§13) The cells were seeded in a 96-well microplate at a suitable concentration (CCRF-CEM/T: 20000 cells/well; BA25: 20000 cells/well; BA91: 60000 cells/well; BA127: 60000 cells/well).
as §6, with “total. 12” for “total. 20”, “was 120” for “was 200”, “group” for “group (PC)”
(§14) Subsequently, the activity of cells was measured with a microculture tetrozolium (MTT method). Specifically, 30 μl/well of PBS containing 2.5 mg/ml MTT was added, and then the cells were cultured for another 3 h. 100 μl/well of triple lysis buffer (10% SDS, 5% isobutanol, 0.012 M HCl) was added, and the mixture was kept at room temperature to dissolve MTT crystal. OD value at 570 nm was measured with an ELISA analyzer.
(§15) Inhibition rate of a compound was calculated as follows:
(§16) Inhibition rate=[1−(OD value of administration group−OD value of NC)/(OD value of PC−OD value of NC)]×100%
as §9

Assay [3] relates to human adenocarcinoma of lung NCI-H1975. Kind of assay: growth inhibition on NCI-H1975 in vitro (MTT). Conditions: NCI-H1975 cells, 72 h, read-out: growth inhibition effects IC50 (nM) NCI-H1975. Here is the method: as §1, §2, §3, §4, §5, §6
(§17) Subsequently, the activity of cells was measured with a microculture tetrozolium (MTT method). […] The medium containing MTT was once again sucked out, 100 μl/well of DMSO was added to dissolve MTT crystal, and OD value at 490 nm was measured with an ELISA analyzer.
(§18) Inhibition rate of a compound was calculated as follows: Inhibition rate=[1−(OD value of administration group−OD value of NC)/(OD value of PC−OD value of NC)]×100% […]

Assay [4] has as its system human lung cancer NCI-H460. Kind of assay: growth inhibition on NCI-H460 in vitro. Conditions: NCI-H460 cells, read-out: growth inhibition effects IC50 (nM) NCI-H460.
Text: as §1

In assay [5] the test system is human pharyngeal squamous cell carcinoma Fadu. Kind of assay: growth inhibition on FaDu in vitro (MTT). Conditions: FaDu cells, 72 h. Here is the method:
as §1, §2, §3, §4, §5, §6, §7, §8, §9

Assay [6] deals with human stomach cancer NCI-N87. Kind of assay: growth inhibition on NCI-N87 in vitro (MTT). Conditions: NCI-N87 cells, 72 h, read-out: growth inhibition effects IC50 (nM) NCI-N87. Here is the method: as §1, §2, §3, §4, §5, §6, §17, §18
The subject of assay [7] is human liver cancer SK-Hep-1. Kind of assay: growth inhibition on SK-Hep-1 in vitro. Conditions: SK-HEP1, SK-Hep-1 cells, read-out: growth inhibition effects IC50 (nM) SK-Hep-1.
Text: as §1

Assay [8] has as its system human non-small cell lung cancer A549. The experiment in a line: growth inhibition on A549 in vitro. Conditions: A549 cells, read-out: growth inhibition effects IC50 (nM) A549.
Text: as §1

For assay [9], the system named is human prostate cancer PC-3. The experiment in a line: growth inhibition on PC-3 in vitro. The note with it: PC-3 cells, read-out: growth inhibition effects IC50 (nM) PC-3.
Text: as §1

Another assay has as its system human B lymphoma BA127. The experiment in a line: growth inhibition on BA127 in vitro (MTT). The note with it: BA127 cells, 72 h. The procedure: as §1, §10, §11, §12, §13
as §6, with “total. 12” for “total. 20”, “was 120” for “was 200”, “group” for “group (PC)”
as §14, §15, §16, §9

The next assay has as its system human B lymphoma BA91. Kind of assay: growth inhibition on BA91 in vitro (MTT). Conditions: BA91 cells, 72 h. Here is the method:
as §1, §10, §11, §12, §13
as §6, with “total. 12” for “total. 20”, “was 120” for “was 200”, “group” for “group (PC)”
as §14, §15, §16, §9

In another assay the test system is human B lymphoma BA25. The experiment in a line: growth inhibition on BA25 in vitro (MTT). Conditions: BA25 cells, 72 h. Here is the method:
as §1, §10, §11, §12, §13
as §6, with “total. 12” for “total. 20”, “was 120” for “was 200”, “group” for “group (PC)”
as §14, §15, §16, §9

Consider `COc1ccccc1OCCCCCN/C(=N\C#N)Nc1ccncc1` [Control 1, N-cyano-N′-(5-(o-methoxyphenoxy)pentyl)-N″-(4-pyridyl) guanidine, reference compound], for which the IC50 was 135 nM in assay [1] and 113 nM in assay [2].
With `N#C/N=C(\NCCCCCCOc1ccc(Cl)cc1)Nc1ccncc1` [Control 2, N-cyano-N′-(6-(4-chlorophenoxy)hexyl)-N″-(4-pyridyl) guanidine], the IC50 in assay [1] stood at 19 nM; in [3] it was 54 nM; in assay [2], 22 nM; in [4], 83 nM; in assay [5], 11.7 nM; in assay [6], 14 nM. In addition, the IC50 turned out to be 16 nM in assay [7], 22 nM in [8] and 2.5 nM in assay [9].
As to `N#C/N=C(\NCCCCCCOc1ccccc1Cl)Nc1ccncc1` [Control 3, N-cyano-N′-(6-(2-chlorophenoxy)hexyl)-N″-(4-pyridyl) guanidine, reference compound], the IC50 worked out at 7.2 nM in assay [1] and 6.3 nM in [2].
In the case of `COc1ccccc1OCCCCCCN/C(=N\C#N)Nc1ccncc1` [Control 4, N-cyano-N′-(6-(2-methoxyphenoxy)hexyl)-N″-(4-pyridyl) guanidine], the IC50 was found to be 7.3 nM in assay [1]; 15.5 nM in [3]; 6.9 nM in assay [2]; 38 nM in assay [4]; 6.6 nM in [6]; 9.9 nM in assay [8]. Moreover, the IC50 in [9] was 2.4 nM.
Turning to `N#C/N=C(\NCCCCCCOc1cc(Cl)ccc1OC(F)F)Nc1ccncc1` [Example 1, N-cyano-N′-(6-(2-difluoromethoxy-5-chlorophenoxy)hexyl)-N″-(4-pyridyl) guanidine], the IC50 in the assay on human B lymphoma BA127 was 1.4 nM; in [2], 2.2 nM; in [5], 1.2 nM; in the assay with human B lymphoma BA91, 2 nM.
In the case of `N#C/N=C(\NCCCCCCOc1ccccc1OC(F)(F)F)Nc1cccnc1` [Example 2, N-cyano-N′-(6-(o-trifluoromethoxyphenoxy)hexyl)-N″-(3-pyridyl) guanidine], the IC50 in the assay with human B lymphoma BA25 worked out at 4.4 nM; in the assay with human B lymphoma BA127, 4.3 nM; in the assay with human B lymphoma BA91, 2.7 nM.
With `N#C/N=C(\NCCCCCCOc1ccc(OC(F)(F)F)cc1)Nc1ccncc1` [Example 4, N-cyano-N′-(6-(p-trifluoromethoxyphenoxy)hexyl)-N″-(4-pyridyl) guanidine], the IC50 in the assay with human B lymphoma BA25 turned out to be 12 nM.
Take `N#C/N=C(\NCCCCCOc1ccccc1OC(F)(F)F)Nc1ccncc1` [Example 5, N-cyano-N′-(5-(o-trifluoromethoxyphenoxy)pentyl)-N″-(4-pyridyl) guanidine]: the IC50 was found to be 7.3 nM in the assay with human B lymphoma BA25, 6.1 nM with human B lymphoma BA127 and 6.9 nM in the assay on human B lymphoma BA91.
`N#C/N=C(\NCCCCCCCCOc1ccccc1OC(F)(F)F)Nc1ccncc1` [Example 6, N-cyano-N′-(8-(o-trifluoromethoxyphenoxy)octyl)-N″-(4-pyridyl) guanidine]: the values for the half-inhibitory concentration (IC50) in the assay on human B lymphoma BA25, with human B lymphoma BA127 and in the assay on human B lymphoma BA91 were 5.6 nM, 9.3 nM and 9.6 nM, respectively.
Take `N#C/N=C(\NCCCCCCOc1ccc(Br)cc1OC(F)(F)F)Nc1ccncc1` [Example 7, N-cyano-N′-(6-(2-trifluoromethoxy-4-bromophenoxy)hexyl)-N″-(4-pyridyl)guanidine]: the IC50 in the assay with human B lymphoma BA25 worked out at 6.3 nM; in the assay on human B lymphoma BA127, 6.9 nM; in assay [2], 5.1 nM; in assay [5], 4.7 nM; in the assay with human B lymphoma BA91 it was 5.8 nM.
For `CC(C)(C)c1ccc(OC(F)F)c(OCCCCCCN/C(=N\C#N)Nc2ccncc2)c1` [Example 10, N-cyano-N′-(6-(2-difluoromethoxy-5-tert-butylphenoxy)hexyl)-N″-(4-pyridyl)guanidine], the IC50 in the assay on human B lymphoma BA127 was 13 nM; in [5] it was 2.4 nM; with human B lymphoma BA91, 3.5 nM.
As for `N#C/N=C(\NCCCCCCOc1ccccc1OC(F)(F)F)Nc1ccncc1` [Example 11, N-cyano-N′-(6-(o-trifluoromethoxyphenoxy)hexyl)-N″-(4-pyridyl) guanidine], the IC50 in the assay on human B lymphoma BA25 was 1 nM; in [1] it was 2.1 nM; in assay [3], 5.3 nM; with human B lymphoma BA127, 1.5 nM; in assay [2], 1.6 nM; in assay [4] it was 8 nM. The IC50 in [5] was determined as 1.5 nM; in assay [6], 1.5 nM; in the assay on human B lymphoma BA91, 1.5 nM; in assay [7], 2.3 nM; in assay [8] it was 3 nM; in assay [9], 0.2 nM.
As for `N#C/N=C(\NCCCCCCOc1ccc(Cl)cc1OC(F)F)Nc1ccncc1` [Example 12, N-cyano-N′-(6-(2-difluoromethoxy-4-chlorophenoxy)hexyl)-N″-(4-pyridyl)guanidine], the IC50 was 2.3 nM in assay [1]; 3.2 nM in the assay with human B lymphoma BA127; 2.3 nM in assay [2]; 2.8 nM in assay [5]; below 1 nM with human B lymphoma BA91.
On to `Cc1ccc(OC(F)F)c(OCCCCCCN/C(=N\C#N)Nc2ccncc2)c1` [Example 16, N-cyano-N′-(6-(5-methyl-2-difluoromethoxyphenoxy)hexyl)-N″-(4-pyridyl)guanidine], for which the IC50 was 0.9 nM in [1]; 1.3 nM in the assay with human B lymphoma BA127; 2.2 nM in [2]; 1.3 nM in assay [5]; below 1 nM in the assay with human B lymphoma BA91.

Broadly, the IC50 is the midpoint of a concentration-inhibition curve.
